From the CheMixHub viscosity set

Assay: xn = mol fraction of the nth substance listed

CN(C)P(=O)(N(C)C)N(C)C + CCO
303.15 K, 101.3 kPa
Conditions | viscosity [mPa·s]
x1 = 0.1007 | 1.255
x1 = 0.2043 | 1.461
x1 = 0.2959 | 1.627
x1 = 0.3983 | 1.807
x1 = 0.5079 | 2.005
x1 = 0.5998 | 2.18
x1 = 0.698 | 2.362
x1 = 0.8012 | 2.557
x1 = 0.9052 | 2.75

C[N+](C)(C)CCO.O=C([O-])CC(=O)O + O
viscosity [mPa·s], 100 kPa
Conditions | x2 = 0.01 | x2 = 0.17 | x2 = 0.22 | x2 = 0.38 | x2 = 0.5 | x2 = 0.58 | x2 = 0.632 | x2 = 0.673 | x2 = 0.864
293.15 K | 12050 | 4381 | 3565 | 1377 | 622.1 | 312.8 | 206.3 | 145.4 | 14.3
298.15 K | 7430 | 2850 | 2316 | 941.2 | 438.7 | 227 | 152.2 | 108.9 | 11.9
303.15 K | 4675 | 1908 | 1563 | 651 | 317.1 | 168.5 | 114.7 | 83.2 | 9.9
308.15 K | 3076 | 1312 | 1084 | 467.9 | 234.5 | 127.7 | 88.2 | 64.8 | 8.4
313.15 K | 2089 | 924.5 | 770 | 343.9 | 177.1 | 98.6 | 69 | 51.3 | 7
318.15 K | 1453 | 666.7 | 559.7 | 257.6 | 136.3 | 77.5 | 54.9 | 41.2 | 6.2
323.15 K | 1034 | 491 | 415.2 | 199.7 | 106.8 | 61.8 | 44.4 | 33.6 | 5.4
